Test results taken from ChEMBL document CHEMBL1201862, “PubChem BioAssay data set” (2004).
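A five-concentration, 48-hour dose response in 96-well plates underlies each endpoint, interpolated linearly between surrounding concentrations. Abbreviation: GI50, concentration required for 50% inhibition of growth.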 The source made the active and inactive calls. Rule as the data show it: active = GI50 up to about 1.1 µM and inactive = higher.

Legend:
Experiment in all cases: NCI tumour cell line growth inhibition, 48 h
SNB-75 = test system: SNB-75
Malme-3M = test system: Malme-3M
MDA-MB-231 = test system: MDA-MB-231
NCI-H23 = test system: NCI-H23
MDA-MB-435 = test system: MDA-MB-435
IGROV-1 = test system: IGROV-1
HOP-62 = test system: HOP-62
HCT-116 = test system: HCT-116
786-0 = test system: 786-0
TK-10 = test system: TK-10
MOLT-4 = test system: MOLT-4
SK-MEL-2 = test system: SK-MEL-2
OVCAR-4 = test system: OVCAR-4
SK-OV-3 = test system: SK-OV-3
NCI-H460 = test system: NCI-H460
HCC 2998 = test system: HCC 2998
OVCAR-8 = test system: OVCAR-8
UACC-257 = test system: UACC-257
MCF7 = test system: MCF7
UO-31 = test system: UO-31
HOP-92 = test system: HOP-92
RXF 393 = test system: RXF 393
K562 = test system: K562
SF-539 = test system: SF-539
M14 = test system: M14
SF-295 = test system: SF-295
SW-620 = test system: SW-620
CAKI-1 = test system: CAKI-1
SR = test system: SR
OVCAR-5 = test system: OVCAR-5
BT-549 = test system: BT-549
Hs-578T = test system: Hs-578T
HCT-15 = test system: HCT-15
SN12C = test system: SN12C
RPMI-8226 = test system: RPMI-8226
SK-MEL-28 = test system: SK-MEL-28
OVCAR-3 = test system: OVCAR-3
COLO 205 = test system: COLO 205
MDA-N = test system: MDA-N
ACHN = test system: ACHN
U-251 = test system: U-251
NCI-H226 = test system: NCI-H226
A549 = test system: A549
EKVX = test system: EKVX
PC-3 = test system: PC-3
SNB-19 = test system: SNB-19
NCI-H522 = test system: NCI-H522
HL-60 = test system: HL-60
SK-MEL-5 = test system: SK-MEL-5
T47D = test system: T47D
LOX IMVI = test system: LOX IMVI
DU-145 = test system: DU-145
SF-268 = test system: SF-268
CCRF-CEM = test system: CCRF-CEM
HT-29 = test system: HT-29
UACC-62 = test system: UACC-62
KM12 = test system: KM12
NCI/ADR-RES = test system: NCI/ADR-RES

Compound: Nc1nc(N)c2nc(CN(C=O)c3ccc(C(=O)O)cc3)cnc2n1
- GI50 (SNB-75): > 52.1 µM (inactive)
- GI50 (Malme-3M): 8.18 µM (inactive)
- GI50 (MDA-MB-231): > 100 µM (inactive)
- GI50 (NCI-H23): 20 µM (inactive)
- GI50 (MDA-MB-435): 17.9 µM (inactive)
- GI50 (IGROV-1): 44.5 µM (inactive)
- GI50 (HOP-62): 14 µM (inactive)
- GI50 (HCT-116): 3.84 µM (inactive)
- GI50 (786-0): 3.05 µM (inactive)
- GI50 (TK-10): > 29.2 µM (inactive)
- GI50 (MOLT-4): 4.81 µM (inactive)
- GI50 (SK-MEL-2): > 100 µM (inactive)
- GI50 (OVCAR-4): > 100 µM (inactive)
- GI50 (SK-OV-3): > 30.1 µM (inactive)
- GI50 (NCI-H460): 7.55 µM (inactive)
- GI50 (HCC 2998): > 100 µM (inactive)
- GI50 (OVCAR-8): 3.85 µM (inactive)
- GI50 (UACC-257): > 100 µM (inactive)
- GI50 (MCF7): 5.31 µM (inactive)
- GI50 (UO-31): > 22.3 µM (inactive)
- GI50 (HOP-92): > 100 µM (inactive)
- GI50 (RXF 393): > 100 µM (inactive)
- GI50 (K562): 1.6 µM (inactive)
- GI50 (SF-539): 8.26 µM (inactive)
- GI50 (M14): 7.43 µM (inactive)
- GI50 (SF-295): 17.1 µM (inactive)
- GI50 (SW-620): 17 µM (inactive)
- GI50 (CAKI-1): > 28.2 µM (inactive)
- GI50 (SR): 10.1 µM (inactive)
- GI50 (OVCAR-5): > 70 µM (inactive)
- GI50 (BT-549): > 26.6 µM (inactive)
- GI50 (Hs-578T): > 100 µM (inactive)
- GI50 (HCT-15): 7.14 µM
- GI50 (SN12C): 52.6 µM (inactive)
- GI50 (RPMI-8226): 14.7 µM (inactive)
- GI50 (SK-MEL-28): > 100 µM (inactive)
- GI50 (OVCAR-3): > 100 µM (inactive)
- GI50 (COLO 205): > 100 µM (inactive)
- GI50 (MDA-N): 8.71 µM (inactive)
- GI50 (ACHN): 3.94 µM (inactive)
- GI50 (U-251): > 93.5 µM (inactive)
- GI50 (NCI-H226): > 100 µM (inactive)
- GI50 (A549): 6.14 µM (inactive)
- GI50 (EKVX): > 26.4 µM (inactive)
- GI50 (PC-3): 0.668 µM (active)
- GI50 (SNB-19): > 42.2 µM (inactive)
- GI50 (NCI-H522): 0.438 µM (active)
- GI50 (HL-60): 18.8 µM (inactive)
- GI50 (SK-MEL-5): 63.4 µM (inactive)
- GI50 (T47D): > 100 µM (inactive)
- GI50 (LOX IMVI): 4.27 µM (inactive)
- GI50 (DU-145): 7.38 µM (inactive)
- GI50 (SF-268): 9.68 µM (inactive)
- GI50 (CCRF-CEM): 4.15 µM (inactive)
- GI50 (HT-29): > 100 µM (inactive)
- GI50 (UACC-62): 7.11 µM (inactive)
- GI50 (KM12): 6.64 µM (inactive)

Compound: CNC(=O)NS(=O)(=O)c1ccc(C)cc1.NS(=O)O
- GI50 (SNB-75): > 100 µM (inactive)
- GI50 (Malme-3M): > 100 µM (inactive)
- GI50 (MDA-MB-231): > 100 µM (inactive)
- GI50 (NCI-H23): > 100 µM (inactive)
- GI50 (IGROV-1): > 100 µM (inactive)
- GI50 (HOP-62): > 100 µM (inactive)
- GI50 (HCT-116): > 100 µM (inactive)
- GI50 (786-0): > 100 µM (inactive)
- GI50 (TK-10): > 100 µM (inactive)
- GI50 (MOLT-4): > 100 µM (inactive)
- GI50 (SK-MEL-2): > 100 µM (inactive)
- GI50 (OVCAR-4): > 100 µM (inactive)
- GI50 (SK-OV-3): > 100 µM (inactive)
- GI50 (NCI-H460): > 100 µM (inactive)
- GI50 (OVCAR-8): > 100 µM (inactive)
- GI50 (UACC-257): > 100 µM (inactive)
- GI50 (MCF7): > 100 µM (inactive)
- GI50 (UO-31): > 100 µM (inactive)
- GI50 (HOP-92): > 100 µM (inactive)
- GI50 (RXF 393): > 100 µM (inactive)
- GI50 (K562): > 100 µM (inactive)
- GI50 (SF-539): > 100 µM (inactive)
- GI50 (M14): > 100 µM (inactive)
- GI50 (SF-295): > 100 µM (inactive)
- GI50 (SW-620): > 100 µM (inactive)
- GI50 (OVCAR-5): > 100 µM (inactive)
- GI50 (BT-549): > 100 µM (inactive)
- GI50 (Hs-578T): > 100 µM (inactive)
- GI50 (HCT-15): > 100 µM
- GI50 (SN12C): > 100 µM (inactive)
- GI50 (RPMI-8226): > 100 µM (inactive)
- GI50 (SK-MEL-28): > 100 µM (inactive)
- GI50 (COLO 205): > 100 µM (inactive)
- GI50 (MDA-N): > 100 µM (inactive)
- GI50 (ACHN): > 100 µM (inactive)
- GI50 (U-251): > 100 µM (inactive)
- GI50 (A549): > 100 µM (inactive)
- GI50 (PC-3): > 100 µM (inactive)
- GI50 (SNB-19): > 100 µM (inactive)
- GI50 (NCI-H522): > 100 µM (inactive)
- GI50 (HL-60): > 100 µM (inactive)
- GI50 (SK-MEL-5): > 100 µM (inactive)
- GI50 (T47D): > 100 µM (inactive)
- GI50 (LOX IMVI): > 100 µM (inactive)
- GI50 (DU-145): > 100 µM (inactive)
- GI50 (SF-268): > 100 µM (inactive)
- GI50 (CCRF-CEM): > 100 µM (inactive)
- GI50 (HT-29): > 100 µM (inactive)
- GI50 (UACC-62): > 100 µM (inactive)
- GI50 (KM12): > 100 µM (inactive)
- GI50 (NCI/ADR-RES): > 100 µM (inactive)

Compound: O=C1OC(CN2CCOCC2)CN1/N=C/c1ccc([N+](=O)[O-])o1 (stereo not drawn) [FURALTADONE]
- GI50 (SNB-75): > 100 µM (inactive)
- GI50 (Malme-3M): 22.7 µM (inactive)
- GI50 (MDA-MB-231): 33.3 µM (inactive)
- GI50 (NCI-H23): 22.9 µM (inactive)
- GI50 (MDA-MB-435): 18 µM (inactive)
- GI50 (IGROV-1): 32.3 µM (inactive)
- GI50 (HOP-62): 61.9 µM (inactive)
- GI50 (HCT-116): 19.1 µM (inactive)
- GI50 (786-0): 62.7 µM (inactive)
- GI50 (TK-10): > 100 µM (inactive)
- GI50 (MOLT-4): 51.6 µM (inactive)
- GI50 (SK-MEL-2): 69.3 µM (inactive)
- GI50 (OVCAR-4): 45.5 µM (inactive)
- GI50 (SK-OV-3): 74.6 µM (inactive)
- GI50 (NCI-H460): 31.4 µM (inactive)
- GI50 (OVCAR-8): 45.8 µM (inactive)
- GI50 (UACC-257): 35.7 µM (inactive)
- GI50 (MCF7): 46 µM (inactive)
- GI50 (UO-31): 97.1 µM (inactive)
- GI50 (HOP-92): 64.4 µM (inactive)
- GI50 (K562): 70 µM (inactive)
- GI50 (SF-539): 42.1 µM (inactive)
- GI50 (M14): 20.7 µM (inactive)
- GI50 (SF-295): 34.9 µM (inactive)
- GI50 (SW-620): 50.7 µM (inactive)
- GI50 (CAKI-1): 38.5 µM (inactive)
- GI50 (SR): 36.8 µM (inactive)
- GI50 (OVCAR-5): 61.5 µM (inactive)
- GI50 (BT-549): 86.1 µM (inactive)
- GI50 (Hs-578T): 54.6 µM (inactive)
- GI50 (HCT-15): 17 µM
- GI50 (SN12C): 28.7 µM (inactive)
- GI50 (RPMI-8226): 24.2 µM (inactive)
- GI50 (SK-MEL-28): > 100 µM (inactive)
- GI50 (OVCAR-3): 21.9 µM (inactive)
- GI50 (COLO 205): 27.5 µM (inactive)
- GI50 (ACHN): 35.6 µM (inactive)
- GI50 (U-251): 31.6 µM (inactive)
- GI50 (NCI-H226): 39.1 µM (inactive)
- GI50 (A549): 50.9 µM (inactive)
- GI50 (EKVX): 63.7 µM (inactive)
- GI50 (PC-3): 54.2 µM (inactive)
- GI50 (SNB-19): 86.1 µM (inactive)
- GI50 (NCI-H522): 26 µM (inactive)
- GI50 (HL-60): 48.8 µM (inactive)
- GI50 (SK-MEL-5): 23.6 µM (inactive)
- GI50 (T47D): 28.8 µM (inactive)
- GI50 (LOX IMVI): 21.7 µM (inactive)
- GI50 (DU-145): 73.3 µM (inactive)
- GI50 (SF-268): 60.3 µM (inactive)
- GI50 (CCRF-CEM): 53 µM (inactive)
- GI50 (HT-29): 32.4 µM (inactive)
- GI50 (UACC-62): 34 µM (inactive)
- GI50 (KM12): 18.5 µM (inactive)
- GI50 (NCI/ADR-RES): 35.4 µM (inactive)
